We go through 19 molecules from patent publication US20050107432A1, “Sigma receptor binder containing indanone derivative” (priority 2002, published 2005).

As a reminder, the IC50 is the concentration at which inhibition is half-maximal.

Structures can show the parent of a compound that is named as a salt.

One test concerns the target Sigma receptor. Put plainly: Sigma receptor binding assay (3H-DTG, guinea pig brain crude membrane fraction). The following applies: inhibition of 3H-DTG binding to guinea pig brain crude membrane fraction, 25° C., 1 hour. How it is done:
Sigma Receptor Binding Assay
(1) Preparation of Receptor
Ten male guinea pigs (Crj, Hartley, from Charles River Japan, Inc.) (body weight: 234 g to 260 g) were decapitated, exsanguinated and died. The brain was immediately removed, homogenized with ten volumes of 50 mM Tris-HCl (pH 7.4) using a Teflon homogenizer and was centrifuged at a rate of 50000× g at 4° C. for 20 minutes. The washing procedure was repeated once more under the same conditions, and the resulting crude membrane fraction was subjected to the assay.
The filter paper was transferred to a vial for radioactivity measurement, mixed with 5 mL of a liquid scintillation cocktail (Atomlight, from PACKARD), and the radioactivity on the filter was determined by a liquid scintillation counter (Model 1500, from PACKARD) for 2 minutes. The specific binding and the non-specific binding in the absence of the test compound were determined in the same way as above except for using 50% DMSO solution instead of the test compound and using a 100 μM Haloperidol solution instead of the test compound, respectively.
(3) Determination of Inhibition
The inhibitions of the test compound at individual concentrations were determined from the ratio of the specific binding in the presence of the test compound to the specific binding in the absence thereof. The dose-response curve was regressed according to a logit-log model in which the ratio of the specific binding in the presence of the test compound to the specific binding in the absence thereof was subjected to logit transformation and plotted against the common logarithm value of each concentration.
`CCOc1cc2c(cc1OC)CC(CC1CCN(Cc3ccccc3)CC1)C2=O` (stereo not shown) [Example 1, 1-benzyl-4-[(6-ethoxy-5-methoxy-1-indanon)-2-yl]methylpiperidine hydrochloride] had an IC50 of 5.1 nM.
`CCOc1cc2c(cc1OC)CC(F)(CC1CCN(Cc3ccccc3)CC1)C2=O` (stereo not shown) [Example 37, 1-benzyl-4-[(6-ethoxy-2-fluoro-5-methoxy-1-indanon)-2-yl]methylpiperidine hydrochloride] yielded an IC50 of 4.3 nM.
As to `CCOc1cc2c(cc1OCC)C(=O)C(CC1CCN(Cc3ccccc3)CC1)C2.Cl` (stereo not shown) [Example 30, 1-Benzyl-4-[(5,6-diethoxy-1-indanon)-2-yl]methylpiperidine hydrochloride], the IC50 is 3.7 nM.
In turn, `CCOc1cc2c(cc1OCC)C(=O)C(F)(CC1CCN(CC3CCCCCCC3)CC1)C2` (stereo not shown) [Example 52, 1-cyclooctylmethyl-4-[(5,6-diethoxy-2-fluoro-1-indanon)-2-yl]methylpiperidine hydrochloride] displayed a concentration for half-maximal inhibition (IC50) of 1.1 nM.
In turn, `O=C1c2ccc(C3CCCCC3)cc2CC1CC1CCN(Cc2ccccc2)CC1` (stereo not shown) [Example 22, hydrochloride] came in with a half-inhibitory concentration (IC50) of 1.3 nM.
Regarding `CCOc1cc2c(cc1OCC)C(=O)C(CC1CCN(Cc3ccc(Cl)cc3)CC1)C2` (stereo not shown) [Example 13, 1-(4-chlorobenzyl)-4-[(5,6-diethoxy-1-indanon)-2-yl]methylpiperidine hydrochloride], the IC50 amounted to 1.6 nM.

The test is the same for the next values; noted with them: result in words, no value given.
Turning to `COc1cc2c(cc1OC)C(=O)C(F)(CC1CCN(Cc3ccccc3F)CC1)C2.Cl` (stereo not shown) [Example 62, 1-(2-Fluorobenzyl)-4-[(5,6-dimethoxy-2-fluoro-1-indanon)-2-yl]methylpiperidine hydrochloride], the “sigma receptor binding action” value was “found to have a sigma receptor binding action”.
The same measure, in the same setting: as for `CCOc1cc2c(cc1OCC)C(=O)C(CC1CCN(Cc3ccccc3)CC1)C2.Cl` (stereo not shown) [Example 30, 1-Benzyl-4-[(5,6-diethoxy-1-indanon)-2-yl]methylpiperidine hydrochloride], the entry is “found to have a sigma receptor binding action”; as for `COc1cc2c(cc1OC)C(=O)C(C)(CC1CCN(Cc3ccccc3)CC1)C2.Cl` (stereo not shown) [Example 71, 1-Benzyl-4-[(5,6-dimethoxy-2-methyl-1-indanon)-2-yl]methylpiperidine hydrochloride], “found to have a sigma receptor binding action”.
With `COc1cc2c(cc1OC)C(=O)C(F)(CC1CCN(Cc3ccc(F)cc3)CC1)C2.Cl` (stereo not shown) [Example 64, 1-(4-Fluorobenzyl)-4-[(5,6-dimethoxy-2-fluoro-1-indanon)-2-yl]methylpiperidine hydrochloride], the “sigma receptor binding action” value is on record as “found to have a sigma receptor binding action”.

The next test addresses T1, acetylcholinesterase (Rattus norvegicus, UniProt P37136).
T1 construct: from tissue; host or cells: rat brain homogenate
T1 sequence (P37136 32-614): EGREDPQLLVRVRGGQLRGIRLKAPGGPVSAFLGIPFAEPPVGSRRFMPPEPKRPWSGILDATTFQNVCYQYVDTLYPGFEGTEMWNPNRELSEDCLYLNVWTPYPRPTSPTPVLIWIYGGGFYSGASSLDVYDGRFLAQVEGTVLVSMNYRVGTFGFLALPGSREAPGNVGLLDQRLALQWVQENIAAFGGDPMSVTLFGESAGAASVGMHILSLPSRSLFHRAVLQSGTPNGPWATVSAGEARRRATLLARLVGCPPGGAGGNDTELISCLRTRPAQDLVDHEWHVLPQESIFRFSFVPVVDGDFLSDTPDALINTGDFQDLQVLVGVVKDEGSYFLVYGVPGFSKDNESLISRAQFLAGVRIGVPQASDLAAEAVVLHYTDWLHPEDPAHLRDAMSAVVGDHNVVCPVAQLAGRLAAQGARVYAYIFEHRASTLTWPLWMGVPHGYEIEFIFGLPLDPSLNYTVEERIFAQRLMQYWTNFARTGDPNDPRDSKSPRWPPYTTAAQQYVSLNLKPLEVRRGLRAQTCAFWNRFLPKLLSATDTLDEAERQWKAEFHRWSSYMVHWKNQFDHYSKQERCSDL
Put plainly: Inhibitory effect on acetylcholinesterase (Ellman method, rat brain homogenate). Conditions: rat brain homogenate as source of acetylcholinesterase; read-out: Acetylcholinesterase inhibition IC50. It counts as biochemical. How it is done:
Inhibitory Effect on Acetylcholinesterase
To DTNB (5,5′-dithiobis(2-nitrobenzoic acid)), acethylthiocholine (as a substrate) and a test compound was added the rat brain homogenate and incubated.
On the technique in general: Ellman's reagent forms a yellow product with free thiols.
With `CCOc1cc2c(cc1OCC)C(=O)C(CC1CCN(Cc3cccc(C)c3)CC1)C2` (stereo not shown) [Example 15, 1-(3-methylbenzyl)-4-[(5,6-diethoxy-1-indanon)-2-yl]methylpiperidine hydrochloride], the 50% inhibitory concentration (IC50) amounted to 9.1 nM.
As to `CCCOc1cc2c(cc1OC)C(=O)C(CC1CCN(Cc3ccccc3)CC1)C2` (stereo not shown) [Example 2, 1-benzyl-4-[[5-methoxy-6-(1-propyloxy)-1-indanon]-2-yl]methylpiperidine hydrochloride], the half-inhibitory concentration (IC50) turned out to be 2.7 nM.
Still for that read-out and setting: with `CCOc1cc2c(cc1OCC)C(=O)C(F)(CC1CCN(CC3CCCCC3)CC1)C2` (stereo not shown) [Example 50, 1-cyclohexylmethyl-4-[(5,6-diethoxy-2-fluoro-1-indanon)-2-yl]methylpiperidine hydrochloride] the figure was 1.9 nM; with `CCOc1cc2c(cc1OC)CC(CC1CCN(Cc3ccccc3)CC1)C2=O` (stereo not shown) [Example 1, 1-benzyl-4-[(6-ethoxy-5-methoxy-1-indanon)-2-yl]methylpiperidine hydrochloride], 7.2 nM; with `CCOc1cc2c(cc1OCC)C(=O)C(F)(CC1CCN(Cc3cccc(C)c3)CC1)C2` (stereo not shown) [Example 47, 1-(3-methylbenzyl)-4-[(5,6-diethoxy-2-fluoro-1-indanon)-2-yl]methylpiperidine hydrochloride], 1 nM.
With `CCOc1cc2c(cc1OC)CC(F)(CC1CCN(Cc3ccccc3)CC1)C2=O` (stereo not shown) [Example 37, 1-benzyl-4-[(6-ethoxy-2-fluoro-5-methoxy-1-indanon)-2-yl]methylpiperidine hydrochloride], the IC50 turned out to be 0.73 nM.
With `CCOc1cc2c(cc1OCC)C(=O)C(CC1CCN(Cc3cccc(F)c3)CC1)C2` (stereo not shown) [Example 9, 1-(3-fluorobenzyl)-4-[(5,6-diethoxy-1-indanon)-2-yl]methylpiperidine hydrochloride], the half-inhibitory concentration (IC50) worked out at 3.4 nM.
As to `CCOc1cc2c(cc1OCC)C(=O)C(F)(CC1CCN(Cc3cccc(Cl)c3)CC1)C2` (stereo not shown) [Example 44, 1-(3-chlorobenzyl)-4-[(5,6-diethoxy-2-fluoro-1-indanon)-2-yl]methylpiperidine hydrochloride], the IC50 came out at 0.75 nM.
As for `COc1cc2c(cc1OCC#N)CC(CC1CCN(Cc3ccccc3)CC1)C2=O` (stereo not shown) [Example 7, 1-benzyl-4-[(5-cyanomethoxy-6-methoxy-1-indanon)-2-yl]methylpiperidine hydrochloride], the IC50 stood at 2.4 nM.
Still for that read-out and setting: with `CCOc1cc2c(cc1OC)C(=O)C(F)(CC1CCN(Cc3ccccc3)CC1)C2` (stereo not shown) [Example 38, 1-benzyl-4-[(5-ethoxy-2-fluoro-6-methoxy-1-indanon)-2-yl]methylpiperidine hydrochloride] the figure was 0.28 nM.

The subject of the next test is sigma receptor.
Assay: not given
The following applies: disclosed in J. Med. Chem. 37, 364 (1994), Neuroscience Lett. 260, 5 (1999), JP-A 11-349481; cited from earlier work.
Consider `COc1cc2c(cc1OC)C(=O)C(C1CCN(Cc3ccccc3)CC1)C2` (stereo not shown) [1-benzyl-4-(5,6-dimethoxy-1-indanon)-2-yl]piperidine], for which the “sigma receptor binding action” value is recorded as “has a sigma receptor binding action”.
With `COc1cc2c(cc1OC)C(=O)C(CC1CCN(Cc3ccccc3)CC1)C2` (stereo not shown) [1-benzyl-4-[(5,6-dimethoxy-1-indanon)-2-yl]methylpiperidine], the “sigma receptor binding action” value was “has a sigma receptor binding action”.
